Experimental findings from US20260206755A1, “COMPOUNDS AND COMPOSITIONS HAVING KNOCK-DOWN OR BLOOD FEED INHIBITION ACTIVITY AGAINST INSECT PESTS” (priority 2017, published 2026) are described below.

Where two headings read alike, the source gives them in different places.

In this series the test system is Anopheles stephensi. Description: Anopheles stephensi treated well plate contact test: knockdown and mortality. It is filed as in vivo. Here is the method:
Examples Anopheles stephensi (Indian Malaria Mosquito)
The individual wells of twelve (12) well tissue culture plates were treated with 200 μl of an ethanol solution containing a test compound of Table 1 or Table 2 at a defined concentration and repeated with also 200 μl of an ethanol solution containing in addition 2 ppm TFNA-AM. Once the deposits were dry, five non-blood fed adult female Anopheles stephensi (between two to five day old) were added to each well, and sustained with a 10% sucrose solution in a cotton wool plug. Assessment of the knockdown after 1 hour, and mortality after 24 and 48 hours was carried out.
In case of multiple tests, the mean value is reported.

Where [1] appears, read: test compound 0.2 ppm plus 2 ppm TFNA-AM, after 24 hours.
[2] abbreviates: test compound 0.2 ppm plus 2 ppm TFNA-AM, after 48 hours.
[3] abbreviates: test compound 0.2 ppm plus 2 ppm TFNA-AM, knockdown after 1 hour.
[4] abbreviates: test compound 2 ppm plus 2 ppm TFNA-AM, after 24 hours.
The mark [5] stands for this setting: test compound 2 ppm plus 2 ppm TFNA-AM, after 48 hours.
Where [6] appears, read: test compound 2 ppm plus 2 ppm TFNA-AM, knockdown after 1 hour.
Where [7] appears, read: test compound 20 ppm plus 2 ppm TFNA-AM, after 24 hours.
The mark [8] stands for this setting: test compound 20 ppm plus 2 ppm TFNA-AM, after 48 hours.
Setting [9] is: test compound 20 ppm plus 2 ppm TFNA-AM, knockdown after 1 hour.
Setting [10] is: test compound 200 ppm plus 2 ppm TFNA-AM, after 24 hours.
The mark [11] stands for this setting: test compound 200 ppm plus 2 ppm TFNA-AM, after 48 hours.
The mark [12] stands for this setting: test compound 200 ppm plus 2 ppm TFNA-AM, knockdown after 1 hour.
Setting [13] is: test compound 0.2 ppm, without TFNA-AM, after 24 hours.
The mark [14] stands for this setting: test compound 0.2 ppm, without TFNA-AM, after 48 hours.
[15] abbreviates: test compound 0.2 ppm, without TFNA-AM, knockdown after 1 hour.
Setting [16] is: test compound 2 ppm, without TFNA-AM, after 24 hours.
The mark [17] stands for this setting: test compound 2 ppm, without TFNA-AM, after 48 hours.
Setting [18] is: test compound 2 ppm, without TFNA-AM, knockdown after 1 hour.
[19] abbreviates: test compound 20 ppm, without TFNA-AM, after 24 hours.
Setting [20] is: test compound 20 ppm, without TFNA-AM, after 48 hours.
Setting [21] is: test compound 20 ppm, without TFNA-AM, knockdown after 1 hour.
[22] abbreviates: test compound 200 ppm, without TFNA-AM, after 24 hours.
Where [23] appears, read: test compound 200 ppm, without TFNA-AM, after 48 hours.
Where [24] appears, read: test compound 200 ppm, without TFNA-AM, knockdown after 1 hour, adult females.

Take `CO/C=C(/C(=O)OC)c1ccccc1Oc1nc(C(C)(C)C)ns1` [Compound 48]: the mortality at 0.2 ppm was determined as 0% (Anopheles stephensi, test compound 0.2 ppm, without TFNA-AM, after 24 hours, read-out: mortality % 24, without TFNA-AM) and 0% (Anopheles stephensi, test compound 0.2 ppm, without TFNA-AM, after 48 hours, read-out: mortality % 48, without TFNA-AM). The pest or weed control at 0.2 ppm (Anopheles stephensi, test compound 0.2 ppm, without TFNA-AM, knockdown after 1 hour, read-out: Knock Down, without TFNA-AM) amounted to 20%. For the same compound, the mortality at 2 ppm reads like this: (Anopheles stephensi, test compound 2 ppm, without TFNA-AM, after 24 hours, read-out: mortality % 24, without TFNA-AM) 100%; (Anopheles stephensi, test compound 2 ppm, without TFNA-AM, after 48 hours, read-out: mortality % 48, without TFNA-AM) 100%. Further, the pest or weed control at 2 ppm (Anopheles stephensi, test compound 2 ppm, without TFNA-AM, knockdown after 1 hour, read-out: Knock Down, without TFNA-AM) is 60%. Moreover, the mortality at 20 ppm is, setting by setting: (Anopheles stephensi, test compound 20 ppm, without TFNA-AM, after 24 hours, read-out: mortality % 24, without TFNA-AM) 100%; (Anopheles stephensi, test compound 20 ppm, without TFNA-AM, after 48 hours, read-out: mortality % 48, without TFNA-AM) 100%. In addition, for the setting “Anopheles stephensi, test compound 20 ppm, without TFNA-AM, knockdown after 1 hour, read-out: Knock Down, without TFNA-AM”, the pest or weed control at 20 ppm amounted to 100%. Moreover, the mortality at 200 ppm was found to be 100% (Anopheles stephensi, test compound 200 ppm, without TFNA-AM, after 24 hours, read-out: mortality % 24, without TFNA-AM) and 100% (Anopheles stephensi, test compound 200 ppm, without TFNA-AM, after 48 hours, read-out: mortality % 48, without TFNA-AM). For the same compound, the pest or weed control at 200 ppm (Anopheles stephensi, test compound 200 ppm, without TFNA-AM, knockdown after 1 hour, adult females, read-out: Knock Down, without TFNA-AM) was 100%. Moreover, the “mortality % 24, with TFNA-AM” value runs as follows: under setting [1], 80%; under setting [4], 100%; under setting [7], 100%; under setting [10], 100%. Further, the “mortality % 48, with TFNA-AM” value is 100% under setting [2], 100% under setting [5], 100% under setting [8] and 100% under setting [11]. Further, the “Knock Down, with TFNA-AM” value by setting is: under setting [3], 100%; under setting [6], 100%; under setting [9], 100%; under setting [12], 100%.
For `O=c1c(-c2cccc(C(F)(F)F)c2)c([O-])[n+](Cc2cncnc2)c2ccccn12` [Triflumizopyrim], the “mortality % 24, with TFNA-AM” value reads like this: under setting [1], 0%; under setting [4], 50%; under setting [7], 90%; under setting [10], 100%. For the same compound, the “mortality % 48, with TFNA-AM” value came out at 0% under setting [2], 50% under setting [5], 100% under setting [8] and 100% under setting [11]. For the same compound, the “Knock Down, with TFNA-AM” value came out at 100% under setting [3], 100% under setting [6], 100% under setting [9] and 100% under setting [12]. In addition, the “mortality % 24, without TFNA-AM” value by setting is: under setting [13], 0%; under setting [16], 0%; under setting [19], 0%; under setting [22], 40%. The “mortality % 48, without TFNA-AM” value amounted to 0% under setting [14], 0% under setting [17], 10% under setting [20] and 40% under setting [23]. The “Knock Down, without TFNA-AM” value reads like this: under setting [15], 0%; under setting [18], 0%; under setting [21], 0%; under setting [24], 0%.
With Abamectin, the “mortality % 24, with TFNA-AM” value is, setting by setting: under setting [1], 20%; under setting [4], 47%; under setting [7], 93%; under setting [10], 100%. The “mortality % 48, with TFNA-AM” value reads like this: under setting [2], 27%; under setting [5], 53%; under setting [8], 100%; under setting [11], 100%. For the same compound, the “Knock Down, with TFNA-AM” value is reported as 100% under setting [3], 100% under setting [6], 100% under setting [9] and 100% under setting [12]. Also, the “mortality % 24, without TFNA-AM” value runs as follows: under setting [13], 13%; under setting [16], 13%; under setting [19], 53%; under setting [22], 100%. In addition, the “mortality % 48, without TFNA-AM” value by setting is: under setting [14], 20%; under setting [17], 33%; under setting [20], 87%; under setting [23], 100%. Further, the “Knock Down, without TFNA-AM” value was 0% under setting [15], 0% under setting [18], 7% under setting [21] and 47% under setting [24].
